Patent publication US20190002399A1 (Nektar Therapeutics, priority 2007, published 2019)
Read-outs that look alike come from different tables or passages of the source. Marks after values point to notes of the source that are not given here.

How the values were obtained:
[1] = target: T1, human Na channels expressed in native cells (human atrial myocytes) (Homo sapiens, UniProt Q14524); assay: Potency at sodium channels: whole-cell patch clamp of sodium current (INa) in isolated human atrial myocytes; assay type: cell-based
T1 construct: from tissue; host or cells: cardiomyocytes isolated from human atrial appendages
Procedure: Experiments were performed at 23±1° C. Currents were measured using the whole-cell variant of the patch clamp method. An Axopatch 1-B amplifier (Axon Instruments, Foster City, Calif.) was used for whole-cell voltage clamping. […] Peak inward current was measured for INa. […] Creation of voltage clamp pulses and data acquisition were controlled by a PC running pClamp software (version 9.2, Axon Instruments). Test compounds were added in a cumulative manner. Data are presented as % reduction of current amplitude. […] Each cell served as its own control. Log-linear plots were created of the mean percent blockade ±SEM at the concentrations tested. Nonlinear curve fitting routine was utilized to fit a three-parameter Hill equation to the results using MicroCal Origin, version 6.0 software.

CB-1 male mice = assay: Analgesic assay: acetic acid writhing test; assay type: in vivo
Procedure: An analgesic assay was used to determine whether a given compound can reduce and/or prevent visceral pain in mice.
The assay utilized CB-1 male mice (5-8 mice per group), each mouse being approximately 0.015-0.030 kg on the study day. Mice were treated according to standard protocols.
Mice were given a single “pretreatment” dose of a compound lacking covalent attachment of a water-soluble, non-peptidic oligomer, a corresponding conjugate comprising the compound covalently attached to a water-soluble, non-peptidic oligomer, or control solution (IV, SC, IP or orally) thirty minutes prior to the administration of the acetic acid solution. The animal was given an IP injection of an irritant (acetic acid) that induces “writhing” which may include: contractions of the abdomen, twisting and turning of the trunk, arching of the back and the extension of the hind limbs. […] After the injection the animals were returned to their cages and their behavior was observed. Contractions were counted between 0 and 20 minutes after the injection. The animals were used once. […]

[2] = Log P determination of conjugates; assay type: physicochemical
[3] = pKa determination of conjugates; assay type: physicochemical
[4] = lidocaine series, IC50 at 0.1 Hz relative to lidocaine
[5] = 10 mg/kg, SC, 30 min before IP 0.5% acetic acid, counted 0-20 min
[6] = 10 mg/kg, SC, animals with writhes ≤ upper 95% confidence limit for morphine
[7] = 10 mg/kg, SC, responding animals/N
[8] = mexiletine series, IC50 at 0.1 Hz relative to mexiletine
[9] = lidocaine series, peak INa, human atrial myocytes, pacing 0.1 Hz, 23±1° C

T1 sequence (Q14524 whole entry): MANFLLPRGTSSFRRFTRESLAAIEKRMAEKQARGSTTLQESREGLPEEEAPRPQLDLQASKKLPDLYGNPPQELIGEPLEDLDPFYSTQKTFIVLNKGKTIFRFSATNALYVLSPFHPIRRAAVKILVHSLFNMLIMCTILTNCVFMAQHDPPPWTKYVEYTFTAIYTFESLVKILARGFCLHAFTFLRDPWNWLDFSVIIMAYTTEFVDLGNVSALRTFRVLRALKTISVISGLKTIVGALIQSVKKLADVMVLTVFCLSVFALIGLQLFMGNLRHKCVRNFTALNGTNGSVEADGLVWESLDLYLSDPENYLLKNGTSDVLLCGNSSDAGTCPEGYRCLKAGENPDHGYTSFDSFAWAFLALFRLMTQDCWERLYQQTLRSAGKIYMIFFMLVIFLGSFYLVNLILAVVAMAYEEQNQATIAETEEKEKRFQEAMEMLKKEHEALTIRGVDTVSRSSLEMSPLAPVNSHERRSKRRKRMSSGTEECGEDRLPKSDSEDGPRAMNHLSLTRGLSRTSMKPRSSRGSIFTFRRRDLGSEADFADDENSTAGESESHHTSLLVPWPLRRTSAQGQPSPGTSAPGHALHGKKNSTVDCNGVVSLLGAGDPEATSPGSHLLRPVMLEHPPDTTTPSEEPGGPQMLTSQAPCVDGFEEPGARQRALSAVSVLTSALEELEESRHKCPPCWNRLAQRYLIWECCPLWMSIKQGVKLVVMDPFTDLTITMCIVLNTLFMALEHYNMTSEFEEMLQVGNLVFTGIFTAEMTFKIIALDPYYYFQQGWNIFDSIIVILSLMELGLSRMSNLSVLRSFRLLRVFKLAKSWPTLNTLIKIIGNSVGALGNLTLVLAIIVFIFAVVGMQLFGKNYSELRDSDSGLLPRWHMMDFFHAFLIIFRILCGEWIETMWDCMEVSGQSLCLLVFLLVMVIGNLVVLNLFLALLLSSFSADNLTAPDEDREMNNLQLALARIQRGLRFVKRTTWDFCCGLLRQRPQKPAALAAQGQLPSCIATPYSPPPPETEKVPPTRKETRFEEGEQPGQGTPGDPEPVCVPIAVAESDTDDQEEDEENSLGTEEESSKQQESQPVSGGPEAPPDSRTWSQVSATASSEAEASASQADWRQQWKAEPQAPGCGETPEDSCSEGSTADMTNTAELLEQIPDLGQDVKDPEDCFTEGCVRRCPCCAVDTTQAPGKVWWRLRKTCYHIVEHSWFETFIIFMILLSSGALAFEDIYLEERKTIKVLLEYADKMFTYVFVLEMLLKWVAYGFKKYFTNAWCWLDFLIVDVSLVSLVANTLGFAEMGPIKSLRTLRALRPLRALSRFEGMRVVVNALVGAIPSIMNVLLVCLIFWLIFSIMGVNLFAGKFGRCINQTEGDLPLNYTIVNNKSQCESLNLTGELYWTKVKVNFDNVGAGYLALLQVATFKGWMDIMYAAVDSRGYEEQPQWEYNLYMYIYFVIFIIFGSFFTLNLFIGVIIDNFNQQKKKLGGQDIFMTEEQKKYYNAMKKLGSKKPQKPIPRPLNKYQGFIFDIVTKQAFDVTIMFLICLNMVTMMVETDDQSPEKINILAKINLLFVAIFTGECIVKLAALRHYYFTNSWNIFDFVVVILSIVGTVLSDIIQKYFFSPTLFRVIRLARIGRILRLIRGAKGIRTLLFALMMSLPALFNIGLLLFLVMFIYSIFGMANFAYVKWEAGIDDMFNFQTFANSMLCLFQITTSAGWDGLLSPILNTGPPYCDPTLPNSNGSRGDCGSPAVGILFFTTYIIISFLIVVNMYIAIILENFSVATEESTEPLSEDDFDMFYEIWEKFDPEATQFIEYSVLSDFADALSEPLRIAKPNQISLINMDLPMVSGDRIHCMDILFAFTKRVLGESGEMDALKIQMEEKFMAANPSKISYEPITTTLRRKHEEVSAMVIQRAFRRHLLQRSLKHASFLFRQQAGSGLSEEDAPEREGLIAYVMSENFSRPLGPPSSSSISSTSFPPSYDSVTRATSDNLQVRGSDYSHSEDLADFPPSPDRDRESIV

| Molecule | Fold Change vs. Parent [1, 4] | IC50 ([1]; read-out: IC50 at 0.1 Hz) [µM] | % Reduction in Writhing (CB-1 male mice; 10 mg/kg, SC) | Mean (writhes) (CB-1 male mice; [5]) | # of Responders (CB-1 male mice; [6]) | Responding Fraction (CB-1 male mice; [7]) | logP ([2]; read-out: LogP) | Fold Change vs. Parent [1, 8] | pKa1 ([3]; Table 2, mexiletine conjugates) | also measured |
| --- | --- | --- | --- | --- | --- | --- | --- | --- | --- | --- |
| CCNCCOCCOCCOCCOCCN(CC)CC(=O)Nc1c(C)cccc1C [EtNH-PEG5-Lidocaine, EtNH-PEG5-lidocaine] | 1 | 99.3 |  |  |  |  |  |  |  |  |
| CCN(CC)CC(=O)Nc1c(C)cccc1C [Lidocaine, lidocaine, reference compound] |  |  | 37.5% | 36.3 | 2 | 0.50 |  |  |  |  |
| CN(C)C(=O)C(CCN1CCC(O)(c2ccc(Cl)cc2)CC1)(c1ccccc1)c1ccccc1 [Loperamide, reference compound] |  |  |  |  |  |  |  |  |  | # of Responders (CB-1 male mice; 0.75 mg/kg, SC): 4; % Reduction in Writhing (CB-1 male mice; 0.75 mg/kg, SC): 78.6%; Responding Fraction (CB-1 male mice; 0.75 mg/kg, SC): 1.00; Mean (writhes) (CB-1 male mice; 0.75 mg/kg, SC, 30 min before IP 0.5% acetic acid, counted 0-20 min): 9.0 |
| CN1CC[C@]23c4c5ccc(O)c4O[C@H]2[C@@H](O)C=C[C@H]3[C@H]1C5 [Morphine, morphine, reference compound] |  |  |  |  |  |  |  |  |  | # of Responders (CB-1 male mice; historical morphine data, N 27, animals with writhes ≤ upper 95% confidence limit for morphine): 15; Mean (writhes) (CB-1 male mice; historical morphine data, contractions counted 0-20 min after IP 0.5% acetic acid, group table: SC 0.5 mg/kg): 21.33; % Reduction in Writhing (CB-1 male mice; historical morphine data, group table: SC 0.5 mg/kg): 57%; Responding Fraction (CB-1 male mice; historical morphine data, responding animals/N): 0.56 |
| COCCOCCOCCN(CCOCCOCCOC)C(C)COc1c(C)cccc1C (stereo not drawn) [N,N-Di-mPEG3-Mexiletine, N,N-di-mPEG3-mexiletine] |  | 66.2 |  |  |  |  | 1.96 | 1 | 7.76 |  |
| COCCOCCOCCOCCOCCN(CCOCCOCCOCCOCCOC)C(C)COc1c(C)cccc1C (stereo not drawn) [N,N-Di-mPEG5-Mexiletine, N,N-di-mPEG5-mexiletine] |  | 95.9 |  |  |  |  | 1.61 | 2 | 8.26 |  |
| COCCOCCOCCOCCOCCOCCOCCN(CCOCCOCCOCCOCCOCCOCCOC)C(C)COc1c(C)cccc1C (stereo not drawn) [N,N-Di-mPEG7-Mexiletine, N,N-di-mPEG7-mexiletine] |  | 130 |  |  |  |  | 0.83 | 2 | 7.75 |  |
| COCCOCCOCCOCCCNC(C)COc1c(C)cccc1C (stereo not drawn) [N-mPEG3-C3-Mexiletine, N-mPEG3-C3-mexiletine] |  | 188 | 46.3% | 29.8 | 2 | 0.40 | 2.05 | 4 | 8.98 |  |
| COCCOCCOCCNC(C)COc1c(C)cccc1C (stereo not drawn) [N-mPEG3-Mexiletine, N-mPEG3-mexiletine] |  | 284 |  |  |  |  | 2.26 | 5 | 8.27 |  |
| COCCOCCOCCOCCOCCNC(C)COc1c(C)cccc1C (stereo not drawn) [N-mPEG5-Mexiletine, N-mPEG5-mexiletine] |  |  | 42.4% | 29.0 | 2 | 0.40 | 4.51 |  | 8.27 | pKa2 ([3]; Table 2, mexiletine conjugates): 7.86 |
| COCCOCCOCCOCCOCCOCCOCCNC(C)COc1c(C)cccc1C (stereo not drawn) [N-mPEG7-Mexiletine, N-mPEG7-mexiletine] |  | 206 |  |  |  |  | 1.23 | 4 | 8.26 |  |
| COCCOCCOCCOCCOCCOCCOCCOCCNC(C)COc1c(C)cccc1C (stereo not drawn) [N-mPEG8-Mexiletine, N-mPEG8-mexiletine] |  | 90.5 | 65.8% | 17.2 | 3 | 0.60 | 1.79 | 2 | 8.79 |  |
| Cc1cccc(C)c1OCC(C)NCCOCCOCCOCCNC(C)COc1c(C)cccc1C (stereo not drawn) [PEG4-Di-Mexiletine, PEG4-di-Mexiletine] |  | 7.32 |  |  |  |  | 2.36 | 0.14 | 7.73 |  |
| CCN(CCOCCOCCOCCOCCO)CC(=O)Nc1c(C)cccc1C [PEG5-Lidocaine, HO-PEG5-Lidocaine] | 3 | 330 |  |  |  |  |  |  |  |  |
| CCN(CCOCCOCCOCCOCCOCCO)CC(=O)Nc1c(C)cccc1C [PEG6-Lidocaine, HO-PEG6-Lidocaine] | 1 | 104 |  |  |  |  |  |  |  |  |
| CCN(CCOCCOCCOC)CC(=O)Nc1c(C)cccc1C [mPEG3-Lidocaine, mPEG3-lidocaine] | 7 | 706 |  |  |  |  | 1.55 |  |  | pKa ([3]; read-out: pKa): 6.46 |
| CCN(CCOCCOCCOCCOC)CC(=O)Nc1c(C)cccc1C [mPEG4-Lidocaine, mPEG4-lidocaine] | 2 | 178 |  |  |  |  | 1.42 |  |  | pKa ([3]; read-out: pKa): 6.46 |
| CCN(CCOCCOCCOCCOCCOC)CC(=O)Nc1c(C)cccc1C [mPEG5-Lidocaine, mPEG5-lidocaine] | 1 |  |  |  |  |  |  |  |  | logP ([2]; Table 1, lidocaine conjugates): 1.01; IC50 [1, 9]: 53.5 µM; pKa ([3]; Table 1, lidocaine conjugates): 6.46 |
| CCN(CCOCCOCCOCCOCCOCCOC)CC(=O)Nc1c(C)cccc1C [mPEG6-Lidocaine, mPEG6-lidocaine] | 5 | 473 |  |  |  |  | 1.23 |  |  | pKa ([3]; read-out: pKa): 6.46 |
| CCN(CCOCCOCCOCCOCCOCCOCCOC)CC(=O)Nc1c(C)cccc1C [mPEG7-Lidocaine, mPEG7-lidocaine] | 2 |  | 40.5% | 36.0 | 2 | 0.40 |  |  |  | logP ([2]; Table 1, lidocaine conjugates): 1.37; IC50 [1, 9]: 236 µM; pKa ([3]; Table 1, lidocaine conjugates): 6.81 |
| CCN(CCOCCOCCOCCOCCOCCOCCOCCOC)CC(=O)Nc1c(C)cccc1C [mPEG8-Lidocaine, mPEG8-lidocaine] | 1 | 57.5 | 37.2% | 38.0 | 2 | 0.40 | 0.63 |  |  | pKa ([3]; read-out: pKa): 6.43 |
| CCN(CCOCCOCCOCCOCCOCCOCCOCCOCCOC)CC(=O)Nc1c(C)cccc1C [mPEG9-Lidocaine, mPEG9-lidocaine] | 2 | 173 |  |  |  |  | 0.82 |  |  | pKa ([3]; read-out: pKa): 6.57 |
| PEG5-di-lidocaine [mPEG5-Di-Lidocaine] | 1 |  | 60.3* % | 17.3 | 2 | 0.50* |  |  |  | IC50 [1, 9]: 83.3 µM; # of Responders (CB-1 male mice; 3 mg/kg, SC): 2; % Reduction in Writhing (CB-1 male mice; 3 mg/kg, SC): 46.0%; Responding Fraction (CB-1 male mice; 3 mg/kg, SC): 0.50; Mean (writhes) (CB-1 male mice; 3 mg/kg, SC, 30 min before IP 0.5% acetic acid, counted 0-20 min): 23.5 |
| PEG6-di-lidocaine [mPEG6-Di-Lidocaine] | 2 |  | 37.9% | 27.0 | 3 | 0.60 |  |  |  | IC50 [1, 9]: 236 µM |
